Values quoted from earlier work in PMC10904332 (Science (New York, N.Y.), 2022).

Settings: known resistance mechanisms

Substance: bacitracin
- MIC increase from resistance mechanisms: > 254 fold
